Assay results: patent publication US12286442B2, “Methods and materials for increasing transcription factor eb polypeptide levels” (University of Pittsburgh—Of the Commonwealth System of …, priority 2019, dated 2025)

Experiments:
TFEB = assay: High content screen measuring TFEB nuclear accumulation (TFEB nuclear/cytosol ratio) in BEAS-2B cells stably expressing TFEB-EGFP; format: cell-based, human; conditions: 18 hours incubation
Summary of the method: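 Readout: lowest compound concentration giving a 25% rise in nuclear/cytosol TFEB-GFP ratio, from DAPI-masked nuclear and mask-expanded cytosolic signals. Cells (BEAS-2B, TFEB-EGFP stable, ~2300–2500/well) rested 8 hours, then treated 18 hours with compound serial dilutions in 2% FBS medium before PFA fixation and DAPI staining.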

BEAS-2B cells = assay: Toxicity: compound concentration needed to induce greater than 50 percent of cell loss; format: cell-based, human; conditions: 18 hours incubation
Summary of the method: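 Reported value is the concentration giving greater than 50 percent cell loss, grouped into bins (≥25 μM; between 1 and 25 μM; ≤1 μM as "+++"). Measured by high-content imaging of DAPI-stained BEAS-2B TFEB-EGFP cells fixed after 18 h compound exposure.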

Structure (SMILES) | efficacy (minimal compound concentration needed to increase TFEB nuclear/cytosol ratio by 25%) (TFEB) | toxicity (compound concentration needed to induce greater than 50 percent of cell loss) (BEAS-2B cells)
CCC(C)NC(=O)Cn1c(=O)n(-c2ccc(OC)cc2)c(=O)c2ccc(C(=O)NCc3ccc(C)cc3)cc21 (stereo not shown) [Compound 216] | + (“+” equals >25 μM) | + (cell loss of greater than 50 percent at a concentration that equals or is greater than 25 μM was represented as)
O=C(Cn1c(=O)n(CC2CCCO2)c(=O)c2ccc(C(=O)NCCc3ccccc3)cc21)Nc1ccc(Br)cc1 (stereo not shown) [Compound 217] | + (“+” equals >25 μM) | + (cell loss of greater than 50 percent at a concentration that equals or is greater than 25 μM was represented as)
COc1ccc(-n2c(=O)c3ccc(C(=O)NCc4ccc(C)cc4)cc3n(CC(=O)Nc3cc(C)[nH]n3)c2=O)cc1 [Compound 218] | + (“+” equals >25 μM) | + (cell loss of greater than 50 percent at a concentration that equals or is greater than 25 μM was represented as)
Cc1ccc(NC(=O)Cn2c(=O)n(-c3ccccc3)c(=O)c3ccc(C(=O)NCc4ccco4)cc32)cc1 [Compound 219] | + (“+” equals >25 μM) | + (cell loss of greater than 50 percent at a concentration that equals or is greater than 25 μM was represented as)
COc1ccc(NC(=O)Cn2c(=O)n(-c3ccc(C)cc3)c(=O)c3ccccc32)cc1 [Compound 220] | + (“+” equals >25 μM) | + (cell loss of greater than 50 percent at a concentration that equals or is greater than 25 μM was represented as)
COc1ccc(NC(=O)Cn2c(=O)n(-c3ccc(CC(=O)NCCc4ccccc4)cc3)c(=O)c3ccccc32)cc1 [Compound 221] | + (“+” equals >25 μM) | + (cell loss of greater than 50 percent at a concentration that equals or is greater than 25 μM was represented as)
COc1ccc(-n2c(=O)c3ccc(C(=O)NCCc4ccccc4)cc3n(CC(=O)Nc3ccc(C)cc3)c2=O)cc1 [Compound 222] | ++ (“++” equals between ≤25 μM and >1 μM) | ++ (cell loss of greater than 50 percent at a concentration less than 25 μM and greater than 1 μM was represented as)
Cc1cc(C)cc(-n2c(=O)c3ccccc3n(CC(=O)Nc3c(C)cc(C)cc3C)c2=O)c1 [Compound 223] | + (“+” equals >25 μM) | + (cell loss of greater than 50 percent at a concentration that equals or is greater than 25 μM was represented as)
Cn1c(=O)c2ccccc2n(CC(=O)Nc2ccccc2)c1=O [Compound 224] | + (“+” equals >25 μM) | + (cell loss of greater than 50 percent at a concentration that equals or is greater than 25 μM was represented as)
Cn1c(=O)c2ccccc2n(CC(=O)Nc2ccc(F)cc2)c1=O [Compound 225] | + (“+” equals >25 μM) | + (cell loss of greater than 50 percent at a concentration that equals or is greater than 25 μM was represented as)
CCn1c(=O)c2ccccc2n(CC(=O)Nc2ccccc2)c1=O [Compound 226] | + (“+” equals >25 μM) | + (cell loss of greater than 50 percent at a concentration that equals or is greater than 25 μM was represented as)
O=C(Cn1c(=O)n(-c2ccccc2)c(=O)c2ccccc21)Nc1cccc(Cl)c1 [Compound 227] | + (“+” equals >25 μM) | + (cell loss of greater than 50 percent at a concentration that equals or is greater than 25 μM was represented as)
CN(C)CCn1c(=O)n(-c2ccccc2)c(=O)c2ccccc21 [Compound 228] | + (“+” equals >25 μM) | + (cell loss of greater than 50 percent at a concentration that equals or is greater than 25 μM was represented as)
O=c1c2ccccc2n(CCN2CCOCC2)c(=O)n1-c1ccccc1 [Compound 229] | + (“+” equals >25 μM) | + (cell loss of greater than 50 percent at a concentration that equals or is greater than 25 μM was represented as)
O=C(Cn1c(=O)n(-c2ccccc2)c(=O)c2ccccc21)N1CCOCC1 [Compound 230] | + (“+” equals >25 μM) | + (cell loss of greater than 50 percent at a concentration that equals or is greater than 25 μM was represented as)
CCc1ccc(-n2c(=O)c3ccc(C(=O)NCCc4ccccc4)cc3n(Cc3ccccc3C#N)c2=O)cc1 [Compound 231] | ++ (“++” equals between ≤25 μM and >1 μM) | + (cell loss of greater than 50 percent at a concentration that equals or is greater than 25 μM was represented as)
O=C(Cc1ccc(-n2c(=O)c3ccccc3n(Cc3ccccc3F)c2=O)cc1)NC1CC1 [Compound 232] | + (“+” equals >25 μM) | + (cell loss of greater than 50 percent at a concentration that equals or is greater than 25 μM was represented as)
C=CCn1c(=O)c2ccc(C(=O)NCc3ccccc3)cc2n(Cc2ccc(C)cc2)c1=O [Compound 233] | + (“+” equals >25 μM) | + (cell loss of greater than 50 percent at a concentration that equals or is greater than 25 μM was represented as)
O=C(NCc1ccco1)c1ccc2c(=O)n(-c3ccccc3)c(=O)n(Cc3cccc(F)c3)c2c1 [Compound 234] | ++ (“++” equals between ≤25 μM and >1 μM) | + (cell loss of greater than 50 percent at a concentration that equals or is greater than 25 μM was represented as)
COc1ccc(-n2c(=O)c3ccccc3n(Cc3ccccc3F)c2=O)cc1 [Compound 235] | ++ (“++” equals between ≤25 μM and >1 μM) | + (cell loss of greater than 50 percent at a concentration that equals or is greater than 25 μM was represented as)
COc1ccc(-n2c(=O)c3ccc(C(=O)NCCc4ccccc4)cc3n(Cc3cccc(F)c3)c2=O)cc1 [Compound 236] | ++ (“++” equals between ≤25 μM and >1 μM) | + (cell loss of greater than 50 percent at a concentration that equals or is greater than 25 μM was represented as)
CCc1ccc(-n2c(=O)c3ccccc3n(Cc3cccc(F)c3)c2=O)cc1 [Compound 237] | ++ (“++” equals between ≤25 μM and >1 μM) | + (cell loss of greater than 50 percent at a concentration that equals or is greater than 25 μM was represented as)
O=C(NCCc1ccccc1)c1ccc2c(=O)n(-c3ccccc3)c(=O)[nH]c2c1 [Compound 238] | + (“+” equals >25 μM) | + (cell loss of greater than 50 percent at a concentration that equals or is greater than 25 μM was represented as)
Fc1cc(Nc2nc(-c3ccncc3)cc3ncccc23)cc2cc[nH]c12 [Compound 239] | ++ (“++” equals between ≤25 μM and >1 μM) | + (cell loss of greater than 50 percent at a concentration that equals or is greater than 25 μM was represented as)
CC(C)c1nc2ccc(Nc3nc(-c4ccncc4)cc4ncccc34)cc2s1 [Compound 240] | +++ (“+++” equals ≤1 μM) | + (cell loss of greater than 50 percent at a concentration that equals or is greater than 25 μM was represented as)
c1cnc2cc(-c3ccncc3)nc(Nc3ccc4nc(C5CC5)sc4c3)c2c1 [Compound 241] | +++ (“+++” equals ≤1 μM) | + (cell loss of greater than 50 percent at a concentration that equals or is greater than 25 μM was represented as)
